Reference: patent US20220204509A1, “PYRIMIDO FIVE-MEMBERED HETEROCYCLIC COMPOUND AND USE THEREOF AS MUTANT IDH2 INHIBITOR” (EPITAS BIOSCIENCES (SHANGHAI) CO., LTD., priority 2019, published 2022)

Tests used:
IDH2/R140Q [1] = molecular target: T1, IDH2/R140Q (Homo sapiens, UniProt P48735, R140Q); test: Determination of the inhibitory activity of the compounds on IDH2/R140Q (NADPH reduction, resazurin/lipoamide dehydrogenase detection); format: biochemical; set-up: purchased Abcam ab198153
T1 sequence (P48735 40-452 R140Q): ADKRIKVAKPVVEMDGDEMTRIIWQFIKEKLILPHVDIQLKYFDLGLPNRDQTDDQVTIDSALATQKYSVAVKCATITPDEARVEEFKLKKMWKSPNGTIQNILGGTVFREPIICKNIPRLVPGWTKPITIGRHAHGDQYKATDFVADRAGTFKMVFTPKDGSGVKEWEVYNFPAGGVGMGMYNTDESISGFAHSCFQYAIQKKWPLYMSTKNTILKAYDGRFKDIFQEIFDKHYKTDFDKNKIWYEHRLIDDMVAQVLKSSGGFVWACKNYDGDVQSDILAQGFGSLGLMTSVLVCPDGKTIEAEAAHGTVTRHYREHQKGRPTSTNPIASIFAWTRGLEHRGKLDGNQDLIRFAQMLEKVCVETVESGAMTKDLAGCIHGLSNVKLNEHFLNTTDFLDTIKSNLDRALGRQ
Protocol: In this example, the inhibitory activity of a compound on IDH2/R140Q was determined by measuring the reduction of the cofactor NADPH. The compound was incubated with IDH2/R140Q and NADPH, and then the reaction was initiated by adding α-KG. After a certain time of reaction under linear conditions, lipoamide dehydrogenase and the corresponding substrate resazurin were added for detection. Lipoamide dehydrogenase terminated the IDH2/R140Q reaction bγ subtracting the available cofactor NADPH. It oxidized NADPH to NADP, and reduced resazurin to highly fluorescent resorufin. The production of resorufin was detected to quantify the amount of cofactor NADPH remaining after a specific reaction time.
Then 25 μL of a stop mixed solution (lipoamide dehydrogenase 36 μg/mL, resazurin 30 μM) prepared with the above reaction buffer was added to convert resazurin to resorufin to measure the remaining NADPH. After 10 minutes of incubation at 25° C., the fluorescence value was measured by Tecan […] […] The enzyme activity was measured at 10 concentrations for each compound, and multiple background holes without enzyme and full enzyme activity holes without compound were set up in the reaction. The concentration of dimethyl sulfoxide in the system was less than or equal to 2%. […] The multi-well plate in this example was purchased from Thermo Fisher Scientific, NADPH, α-KG, lipoamide dehydrogenase, and resazurin were purchased from Shenggong Bioengineering Co., Ltd., and IDH2/R140Q was purchased from Abcam (ab198153).

IDH2/R140Q [2] = molecular target: T1, IDH2/R140Q; test: Inhibition of mutant IDH2 activity at the cell level (extracellular 2-HG, U87MG overexpressing IDH2/R140Q); format: cell-based
Protocol: 2-hydroxyglutarate dehydrogenase (2HGDH) can reduce NAD+ to NADH in the presence of 2-HG. The latter can be quantitatively detected by diaphorase and its substrate Resazurin.
The glioma cells U87MG overexpressing IDH2/R140Q mutation were cultured in 1% sodium pyruvate high-sugar MEM, 10% FBS, and placed in a CO2 incubator (37° C., 5% CO2, 95% air) for cultivation.
The cells were digested with trypsin and seeded in a 96-well plate at a density of 1×10^4 with a medium of 200 μL and cultured in a 37° C. incubator overnight. The next day, the test compound was added to a final concentration of 0.1% for DMSO. […] The protein and other components in the medium that may interfere with the results were filtered, and the follow-up method was used to detect the content of 2-HG. 50 uL CellTiter-Glo (purchased from Promega) was added to the 96-well plate with the remaining 100 μL of medium to detect cell survival;
Extracellular 2-HG detecting system:
(1) 50 μL reaction system: reaction buffer (50 mM Tris pH7.5, 100 mM NaCl, 20 mM MgCl2, 0.05% BSA), in which the final concentration of NAD+ was 40 μM, the final concentration of 2HGDH was 20 nM, and the test sample was added to 5 μL of medium; the reaction solution was mixed and centrifuged, and the reaction was carried out for 1 hour at 25° C. in the dark;
Preparation of 2-HG standard curve: a 2-HG stock solution was diluted to 20 μM with reaction buffer, and a 2-fold gradient diluting was performed for a total of 6 points. Afterwards, the above-mentioned 2-HG was measured according to the extracellular 2-HG detecting system, and a standard curve was calculated and drawn.
Calculation of extracellular 2-HG content:
The fluorescence value obtained in the extracellular 2-HG detecting system was calculated using the 2-HG standard curve to calculate the content of 2-HG in the medium, and DMSO was used as a negative control to calculate the compound's inhibition against IDH2/R140Q mutation producing 2-HG activity.

[3] = IDH2/R140Q inhibitory activity, cells marked (1 h), read-out: IC50
[4] = U87MG overexpressing IDH2/R140Q, 2-HG in medium after 24 hours of culturing with compound, read-out: IC50
[5] = IDH2/R140Q inhibitory activity, pre-incubated at 25° C. for 16 hours, read-out: IC50

Compound | IC50 (IDH2/R140Q [1]; [3]) [µM] | IC50 (IDH2/R140Q [2]; [4]) [µM] | IC50 (IDH2/R140Q [1]; [5]) [µM] | other results
CC(C)(O)CNc1nc(Nc2ccnc(C(F)(F)F)c2)nc(-c2cccc(C(F)(F)F)n2)n1 [AG-221, Enasidenib, reference compound] |  |  |  | IC50 (IDH2/R140Q [1]): < 0.1 µM; IC50 (IDH2/R140Q [2]): < 0.1 µM
CC(C)n1cnc2c(Nc3ccccc3)nc(-c3ccccc3)nc21 [Compound 1, 9-isopropyl-N,2-diphenyl-9H-purin-6-amine] | > 10 |  |  | 
COc1ccccc1Nc1nc(-c2ccccc2)nc2c1ncn2C(C)C [Compound 2, 9-isopropyl-N-(2-methoxyphenyl)-2-phenyl-9H-purin-6-amine] | > 10 |  |  | 
CC(C)n1cnc2c(Nc3ccnc(C(F)(F)F)c3)nc(-c3ccccc3)nc21 [Compound 3, 9-isopropyl-2-phenyl-N-(2-(trifluoromethyl)pyridin-4-yl)-9H-purin-6-amine] | > 10 | > 10 |  | 
CC(C)n1cnc2c(Nc3ccnc(C(F)(F)F)c3)nc(-c3cccc(C(F)(F)F)n3)nc21 [Compound 4, 9-isopropyl-2-(6-(trifluoromethyl)pyridin-2-yl)-N-(2-(trifluoromethyl)pyridin-4-yl)-9H-purine-6-amine] | > 10 | > 10 |  | 
CC(C)n1cnc2c(Nc3ccnc(C(F)(F)F)c3)nc(-c3cccnc3)nc21 [Compound 5, 9-isopropyl-2-(pyridin-3-yl)-N-(2-(trifluoromethyl)pyridin-4-yl)-9H-purin-6-amine] | > 10 | > 10 |  | 
CC(C)n1cnc2c(Nc3ccnc(C(F)(F)F)c3)nc(-c3ccncc3)nc21 [Compound 9, 9-isopropyl-2-(pyridin-4-yl)-N-(2-(trifluoromethyl)pyridin-4-yl)-9H-purin-6-amine] | > 10 | > 10 |  | 
CC(C)n1cnc2c(Nc3ccnc(C(F)(F)F)c3)nc(-c3ccccn3)nc21 [Compound 10, 9-isopropyl-2-(pyridin-2-yl)-N-(2-(trifluoromethyl)pyridin-4-yl)-9H-purin-6-amine] | > 10 | > 10 |  | 
CC(C)n1cnc2c(-c3ccccc3)nc(Nc3ccccc3)nc21 [Compound 12, 9-isopropyl-N,6-diphenyl-9H-purin-2-amine] | > 10 | > 10 |  | 
Cc1cc2c(NC(C)C)nc(-c3ccccc3)nc2[nH]1 [Compound 13, N-isopropyl-6-methyl-2-phenyl-7H-pyrrolo[2,3-d]pyrimidin-4-amine] |  | 0.1 to 1 | 0.1 to 1 | 
Cc1cc2c(NC3CC3)nc(-c3ccc4ccccc4c3)nc2[nH]1 [Compound 15, N-cyclopropyl-6-methyl-2-(naphthalene-2-yl)-7H-pyrrolo[2,3-d]pyrimidin-4-amine] |  |  | > 10 | 
Cc1cc2c(NC(C)C)nc(-c3ccccn3)nc2[nH]1 [Compound 16, N-isopropyl-6-methyl-2-(pyridin-2-yl)-7H-pyrrolo[2,3-d]pyrimidin-4-amine] |  | 1 to 10 | > 10 | 
Cc1cc2c(NC(C)C)nc(-c3cccnc3)nc2[nH]1 [Compound 17, N-isopropyl-6-methyl-2-(pyridin-3-yl)-7H-pyrrolo[2,3-d]pyrimidin-4-amine] |  | > 10 | > 10 | 
Cc1cc2c(NC(C)C)nc(-c3ccncc3)nc2[nH]1 [Compound 18, N-isopropyl-6-methyl-2-(pyridin-4-yl)-7H-pyrrolo[2,3-d]pyrimidin-4-amine] |  | > 10 | > 10 | 
Cn1cnc2c(Nc3ccccc3)nc(-c3ccccc3)nc21 [Compound 24, 9-methyl-N,2-diphenyl-9H-purin-6-amine] |  | > 10 | > 10 | 
Cc1cc2c(NC(C)(C)C)nc(-c3ccccc3)nc2[nH]1 [Compound 27, N-(tert-butyl)-6-methyl-2-phenyl-7H-pyrrolo[2,3-d]pyrimidin-4-amine] |  |  | > 10 | 
Cc1cc2c(NCC3CC3)nc(-c3ccccc3)nc2[nH]1 [Compound 29, N-(cyclopropylmethyl)-6-methyl-2-phenyl-7H-pyrrole[2,3-d]pyrimidin-4-amine] |  | 1 to 10 | 1 to 10 | 
CC(C)Nc1nc(-c2ccccc2)nc2[nH]ccc12 [Compound 32, N-isopropyl-2-phenyl-7H-pyrrolo[2,3-d]pyrimidin-4-amine] |  |  | > 10 | 
CC(C)Nc1nc(-c2ccccc2)nc2[nH]c(Br)cc12 [Compound 33, 6-bromo-N-isopropyl-2-phenyl-7H-pyrrolo[2,3-d]pyrimidin-4-amine] |  |  | > 10 | 
Cc1cc2c(NCC(C)(C)O)nc(-c3ccccc3)nc2[nH]1 [Compound 35, 2-methyl-1-((6-methyl-2-phenyl-7H-pyrrolo[2,3-d]pyrimidin-4-yl)amino)propan-2-ol] |  |  | > 10 | 

The next lines start with results.

IC50 (IDH2/R140Q [1]; [3]) [µM] | IC50 (IDH2/R140Q [2]; [4]) [µM] | IC50 (IDH2/R140Q [1]; [5]) [µM] | Compound | other results
> 10 | > 10 |  | c1ccc(Nc2nc(-c3ccccc3)nc3[nH]cnc23)cc1 [Compound 6, N,2-diphenyl-9H-purin-6-amine] | 
 | 1 to 10 | 1 to 10 | Cc1cc2c(-c3ccccc3)nc(Nc3ccccc3)nc2[nH]1 [Compound 7, 6-methyl-N,4-diphenyl-7H-pyrrolo[2,3-d]pyrimidin-2-amine] | 
 | 1 to 10 | 0.1 to 1 | Cc1cc2c(Nc3ccccc3)nc(-c3ccccc3)nc2[nH]1 [Compound 8, 6-methyl-N,2-diphenyl-7H-pyrrolo[2,3-d]pyrimidin-4-amine] | 
> 10 |  |  | Cn1ccc2c(Nc3ccccc3)nc(-c3ccccc3)nc21 [Compound 11, 7-methyl-N,2-diphenyl-7H-pyrrolo[2,3-d]pyrimidin-4-amine] | 
> 10 | > 10 |  | Cc1nc2c(Nc3ccccc3)nc(-c3ccccc3)nc2[nH]1 [Compound 14, 8-methyl-N,2-diphenyl-9H-purin-6-amine] | 
 | > 10 | > 10 | c1ccc(Nc2nc(-c3ccccc3)nc3[nH]ccc23)cc1 [Compound 19, N,2-diphenyl-7H-pyrrolo[2,3-d]pyrimidin-4-amine] | 
 | 1 to 10 | 0.1 to 1 | Cc1cc2c(Nc3ccnc(C(F)(F)F)c3)nc(-c3ccccc3)nc2[nH]1 [Compound 20, 6-methyl-2-phenyl-N-(2-(trifluoromethyl)pyridin-4-yl)-7H-pyrrolo[2,3-d]pyrimidin-4-amine] | 
 | 1 to 10 | > 10 | Cc1cc2c(Nc3ccnc(F)c3)nc(-c3ccccc3)nc2[nH]1 [Compound 21, N-(2-fluoropyridin-4-yl)-6-methyl-2-phenyl-7H-pyrrolo[2,3-d]pyrimidin-4-amine] | 
 | 1 to 10 | > 10 | Cc1cc2c(Nc3ccccc3)nc(Nc3ccccc3)nc2[nH]1 [Compound 22, 6-methyl-N2,N4-diphenyl-7H-pyrrolo[2,3-d]pyrimidine-2,4-diamine] | 
 |  | > 10 | Cc1cc2c(-c3ccccc3)nc(-c3ccccc3)nc2[nH]1 [Compound 26, 6-methyl-2,4-diphenyl-7H-pyrrolo[2,3-d]pyrimidine] | 
 |  | > 10 | Cc1cc2c(NCc3ccccc3)nc(-c3ccccc3)nc2[nH]1 [Compound 30, N-benzyl-6-methyl-2-phenyl-7H-pyrrolo[2,3-d]pyrimidin-4-amine] | 
